Experimental data reported in patent publication US4973576A, “Bisphophonic acid derivatives and pharmaceutical compositions containing the same” (Yamanouchi Pharmaceutical Co., Ltd., priority 1987, dated 1990).
Where “and” joins values, the source holds several entries; their conditions need not be identical. Equal values may be shown once.

Columns and labels:
[1] = test system: hypercalcemia induced by administration of parathyroid hormone (PTH); assay: Inhibitory effect on hypercalcemia induced by PTH in rats (serum Ca++); assay type: in vivo, male Wistar rats; details: mean ± S.E.
Protocol: Rats of hypercalcemia induced by administration of parathyroid hormone (hereinafter referred to as "PTH") were used, and the decrement of the serum calcium amount by administration of the compound was measured.
30 μg/kg of human 1-34 PTH (manufactured by Peptide Laboratory) which was dissolved in a 0.1% BSA (bovine serum albumin)-containing physiological saline (content of the PTH is 6 μg/ml) was intravenously injected in an amount of 30 μg/kg (5 ml/kg as the solution) to 5-week male Wistar rats which had been fasting for 20 hours. Only 0.1% BSA-containing physiological saline was injected to the normal control group in the same manner. 45 minutes after the PTH injection, the rats were etherized and then subjected to celiotomy, whereby the blood was collected from the abdominal cava with a vacuum blood-collecting tube. The blood collected was immediately centrifuged by 3000 rpm, at 4° C. for 10 minutes to isolate the serum. The ionized calcium (Ca^++) concentration in the serum was immediately measured with a Ca^++ meter (Sera 250, manufactured by Horiba Manufacturing Co.).
The compounds of the present invention were dissolved using sodium hydroxide and hydrochloric acid, in physiological saline (pH 7.4), for subcutaneous administration, in such amounts that the dose amounted to 2 ml/kg, and for oral administration, in distilled water (pH 7.4) so that the dose amounted to 5 ml/kg. They were administered 24 or 72 hours before the PTH injection. A physiological saline or a distilled water was administered to the normal control group and the control group, in the same manner. Salmon calcitonin (SCT, manufactured by Armour Co.) was dissolved in physiological saline so that the dose amounted to 2 ml/kg, and then subcutaneously administered 30 minutes before the PTH injection.
The results for each group were expressed in terms of mean±S.E. (standard error) and comparison was made among the groups by testing by one-way analysis of variance. The significance level was taken at 5%.

[2] = test system: adjuvant arthritis; assay: Experiment (3)-I: therapeutic effect on adjuvant arthritis in rats; assay type: in vivo, male Lewis rats
Protocol: (§1) Specifically, for investigation of the anti-arthritic effect, experimental models of adjuvant arthritis which is resemble to rheumatoid arthritis in human were used in two test methods. In one method to test the therapeutic effect of the compounds, the compounds to be tested were administered to the animals already having the adjuvant arthritis. In the other method to test the prophylactic effect of the compounds, these were administered after the adjuvant administration, and the expression and progress of the resulting arthritis, if any, was observed.
0.1 ml of a suspension of dry dead cells of Mycobacterium butyricum as suspended in liquid paraffin in a proportion of 6 mg/ml was subcutaneously injected to male Lewis rats (7-week) in the tail. After 17 or 18 days, the thickness of the both hind paws was measured. One group comprising six rats in which the arthritis was noticeably observed was isolated. After the grouping day, the compound to be tested was subcutaneously or orally administered once a day for 14 days to the rats. Next day after the last administration, the thickness of the soles of the both hind legs was again measured.
(§2) For the Experiments (3)-I and (3)-II, the compounds of the present invention were dissolved, using sodium hydroxide and hydrochloric acid in physiological saline (pH 7.4), for subcutaneous administration, in such amount that the dose amounted to 2 ml/kg, and for oral administration, in distilled water (pH 7.4) so that the dose amounted to 5 ml/kg; and indometacin (as comparative drug) was suspended in 0.5% methyl cellulose solution so that the dose amounted to 5 ml/kg. Each rat was weighed at the first day of starting the administration of the compound to be tested and at the last day of the administration of the compound, and the difference of the weight there between (ΔB.W.) was obtained.
(§3) The results for each group were expressed in terms of mean ±S.E. (standard error) and comparison was made among the groups by testing by one-way analysis of variance. The significance level was taken at 5%.

[3] = Acute toxicity test in rats; assay type: in vivo; details: sc, 10 mg/kg/day for continuous two weeks
Protocol: The compound of Manufacture Example 1 was subcutaneously injected to rats in an amount of 10 mg/kg/day for continuous two weeks, and no rats died.

[4] = test system: adjuvant arthritis; assay: Experiment (3)-II: prophylactic effect on adjuvant arthritis in rats; assay type: in vivo, male Lewis rats; details: sc; for Thickness of Paw, Left: adjuvant-injected paw; for Thickness of Paw, Right: opposite paw
Protocol: as §1
0.05 ml of the suspension of dry dead bacilli of Mycobacterium butyricum as suspended in liquid paraffin in a proportion of 6 mg/ml was subcutaneously injected to male Lewis rats (6 to 7-week) in the left hind paw. After the adjuvant injection, the compound to be tested was administered to the rats once a day for 21 days. Next day after the last administration, the thickness of the both hind paws of the rats was measured.
as §2, §3

[5] = test system: immobilization-induced atrophy of bone; assay: Inhibition of bone resorption: immobilization-induced (neurectomy) atrophy of bone in rats; assay type: in vivo, Wistar rats; details: for Left humerus Ashed weight / Left humerus Ashed weight / Dry weight / Left humerus Dry weight: 2 weeks; for Difference of Bone Ash Content (b): nontreated minus treated humerus ashed weight; for Difference of Bone Weight (a): nontreated minus treated humerus dry weight
[6] = po, 10 mg/kg once a day 14 days
[7] = po, 30 mg/kg once a day 14 days
[8] = po, 100 mg/kg once a day 14 days, 100 mg/kg
[9] = sc, 0.1 mg/kg once a day 14 days
[10] = sc, 0.3 mg/kg once a day 14 days
[11] = sc, 1.0 mg/kg once a day 14 days
[12] = sc, 3.0 mg/kg once a day 14 days
[13] = sc, 10 mg/kg once a day 14 days

Q: Which results are given for `Cc1cc(NC(P(=O)(O)O)P(=O)(O)O)no1` [Manufacture Example 1, [(5-methyl-3-isoxazolyl)amino]methylene-bis(phosphonic acid)]?
A: Serum Ca++ ([1]; oral, 30 mg/kg, 72 hours before PTH injection): 1.48 ± 0.01 m mole/liter; Serum Ca++ ([1]; oral, 100 mg/kg, 24 hours before PTH injection): 1.44 ± 0.02 m mole/liter; Serum Ca++ ([1]; oral, 100 mg/kg, 72 hours before PTH injection): 1.16 ± 0.03 m mole/liter; Serum Ca++ ([1]; oral, 300 mg/kg, 24 hours before PTH injection): 1.41 ± 0.01 m mole/liter; Serum Ca++ ([1]; sc, 0.3 mg/kg, 24 hours before PTH injection): 1.43 ± 0.02 m mole/liter; Serum Ca++ ([1]; sc, 1.0 mg/kg, 24 hours before PTH injection): 1.40 ± 0.01 m mole/liter; Serum Ca++ ([1]; sc, 3.0 mg/kg, 24 hours before PTH injection): 1.36 ± 0.02 m mole/liter; Thickness of Paw (average of right and left paws) [2, 6]: 1435 ± 49 × 0.01 mm; ΔB.W. [2, 6]: 23.3 ± 0.9 g; Thickness of Paw (average of right and left paws) [2, 7]: 1296 ± 45 × 0.01 mm; ΔB.W. [2, 7]: 32.8 ± 1.7 g; Thickness of Paw (average of right and left paws) [2, 8]: 1131 ± 36 × 0.01 mm and 1083 ± 36 × 0.01 mm; ΔB.W. [2, 8]: 50 ± 3 g and 43.3 ± 2.0 g; Thickness of Paw (average of right and left paws) [2, 9]: 1258 ± 31 × 0.01 mm; ΔB.W. [2, 9]: 40 ± 2 g; Thickness of Paw (average of right and left paws) [2, 10]: 1102 ± 36 × 0.01 mm; ΔB.W. [2, 10]: 50 ± 2 g; Thickness of Paw (average of right and left paws) [2, 11]: 956 ± 36 × 0.01 mm; ΔB.W. [2, 11]: 56 ± 4 g; Thickness of Paw (average of right and left paws) [2, 12]: 974 ± 32 × 0.01 mm; ΔB.W. [2, 12]: 56 ± 1 g; mortality [3]: no rats died; ΔB.W. ([4]; 0.1 mg/kg once a day 21 days): 238 ± 2 g; Thickness of Paw, Left ([4]; 0.1 mg/kg once a day 21 days): 1277 ± 19 × 0.01 mm; Thickness of Paw, Right ([4]; 0.1 mg/kg once a day 21 days): 1279 ± 27 × 0.01 mm; ΔB.W. ([4]; 0.3 mg/kg once a day 21 days): 239 ± 2 g; Thickness of Paw, Left ([4]; 0.3 mg/kg once a day 21 days): 1158 ± 12 × 0.01 mm; Thickness of Paw, Right ([4]; 0.3 mg/kg once a day 21 days): 1107 ± 25 × 0.01 mm; ΔB.W. ([4]; 1.0 mg/kg once a day 21 days): 233 ± 3 g; Thickness of Paw, Left ([4]; 1.0 mg/kg once a day 21 days): 1174 ± 14 × 0.01 mm; Thickness of Paw, Right ([4]; 1.0 mg/kg once a day 21 days): 1110 ± 28 × 0.01 mm; Left humerus Ashed weight ([5]; oral, 10 mg/kg): 54.9 ± 1.3 mg; Left humerus Ashed weight / Dry weight ([5]; oral, 10 mg/kg): 53.4 ± 0.3%; Left humerus Dry weight ([5]; oral, 10 mg/kg): 102.8 ± 2.2 mg; Left humerus Ashed weight ([5]; oral, 30 mg/kg): 61.0 ± 1.0 mg; Left humerus Ashed weight / Dry weight ([5]; oral, 30 mg/kg): 54.4 ± 0.3%; Left humerus Dry weight ([5]; oral, 30 mg/kg): 112.1 ± 1.4 mg; Left humerus Ashed weight ([5]; oral, 100 mg/kg): 68.9 ± 1.3 mg; Left humerus Ashed weight / Dry weight ([5]; oral, 100 mg/kg): 55.6 ± 0.2%; Left humerus Dry weight ([5]; oral, 100 mg/kg): 123.9 ± 2.3 mg; Left humerus Ashed weight ([5]; sc, 0.1 mg/kg): 64.9 ± 1.2 mg; Left humerus Ashed weight / Dry weight ([5]; sc, 0.1 mg/kg): 56.9 ± 0.1%; Left humerus Dry weight ([5]; sc, 0.1 mg/kg): 113.9 ± 2.0 mg; Left humerus Ashed weight ([5]; sc, 0.3 mg/kg): 65.4 ± 1.6 mg; Left humerus Ashed weight / Dry weight ([5]; sc, 0.3 mg/kg): 57.2 ± 0.3%; Left humerus Dry weight ([5]; sc, 0.3 mg/kg): 114.4 ± 2.6 mg; Left humerus Ashed weight ([5]; sc, 1.0 mg/kg): 70.1 ± 1.1 mg; Left humerus Ashed weight / Dry weight ([5]; sc, 1.0 mg/kg): 57.8 ± 0.4%; Left humerus Dry weight ([5]; sc, 1.0 mg/kg): 121.3 ± 2.1 mg; Difference of Bone Ash Content (b) ([5]; sc, 3 mg/kg once a day 14 days): 4.8 ± 0.5 mg; Difference of Bone Weight (a) ([5]; sc, 3 mg/kg once a day 14 days): 8.0 ± 1.0 mg; Difference of Bone Ash Content (b) [5, 13]: 1.7 ± 0.5 mg; Difference of Bone Weight (a) [5, 13]: 3.2 ± 0.7 mg
